# In patent US5804577A, “Cephalosporin derivatives” (Hoffmann-La Roche Inc., priority 1995, dated 1998):
# Where a name gives a salt, the structure may show the parent alone. Read-outs that look alike come from different tables or passages of the source.
# How the values were obtained:
# Experiment in all cases: MIC by agar dilution method in Mueller Hinton agar
# Type in all cases: cell-based
# Acinetobacter sp. 51-156 = settings: SP.51156
# Method: (§1) In vitro activity was determined by minimum inhibitory concentration in a microorganism spectrum by the agar dilution method in Mueller Hinton agar.
# B. fragilis ATCC25285 = settings: Bacteroides fragilis
# Method: as §1
# C. difficile ZH1 = settings: Clostridioides difficile
# Method: as §1
# C. freundii 43 = settings: Citrobacter freundii, 43
# Method: as §1
# E. cloacae 908R = settings: Enterobacter cloacae
# Method: as §1
# E. cloacae 908SSi = settings: Enterobacter cloacae
# Method: as §1
# E. faecalis 6 = settings: Enterococcus faecalis
# Method: as §1
# H. influenzae 1 = settings: Haemophilus influenzae
# Method: as §1
# L. monocytogenes BK23 = settings: Listeria monocytogenes
# Method: as §1
# M. catarrhalis RA21 = settings: Moraxella catarrhalis
# Method: as §1
# P. aeruginosa 27853 = settings: Pseudomonas aeruginosa
# Method: as §1
# [1] = system: P. asaccharolyticus 29743; settings: Peptoniphilus asaccharolyticus
# Method: as §1
# P. vulgaris 1028 = settings: Proteus vulgaris
# Method: as §1
# S. agalactiae QK44 = settings: Streptococcus agalactiae
# Method: as §1
# S. aureus 6538 = settings: Staphylococcus aureus, 6538
# Method: as §1
# S. aureus 734 MRSA = settings: Staphylococcus aureus, MRSA
# Method: as §1
# S. marscescens 69438 = system: S. marscescens 69438
# Method: as §1
# S. pneumoniae Q19 = settings: Streptococcus pneumoniae
# Method: as §1
# S. viridans group 016 = settings: Streptococcus viridans, GROUP016
# Method: as §1
# X. maltophilia 1AC739 = settings: Stenotrophomonas maltophilia
# Method: as §1
# C. freundii 902 = settings: Citrobacter freundii
# Method: as §1
# E. coli 25922 = settings: Escherichia coli
# Method: as §1
# K. pneumoniae 418 = settings: Klebsiella pneumoniae
# Method: as §1
# P. mirabilis 2117 = settings: Proteus mirabilis
# Method: as §1
# M. morganii 6H-137 = settings: Morganella morganii, 6H137
# Method: as §1
# [2] = K. pneumoniae 418, read-out: MIC
# [3] = P. mirabilis 2117, read-out: MIC
# [4] = P. aeruginosa 27853, read-out: MIC
Compound,MIC (B. fragilis ATCC25285; ATCC25285) [µg/mL],MIC (C. difficile ZH1; ZH1) [µg/mL],MIC (C. freundii 43) [µg/mL],MIC (E. cloacae 908SSi; 908SSI) [µg/mL],MIC (E. faecalis 6; 6) [µg/mL],MIC (H. influenzae 1) [µg/mL],MIC (L. monocytogenes BK23; BK23) [µg/mL],MIC (P. aeruginosa 27853; 27853) [µg/mL],MIC [1] [µg/mL],MIC (S. agalactiae QK44) [µg/mL],MIC (S. aureus 6538) [µg/mL],MIC (S. aureus 734 MRSA) [µg/mL],MIC (S. marscescens 69438) [µg/mL],MIC (S. viridans group 016) [µg/mL],MIC (Acinetobacter sp. 51-156; Acinetobacter) [µg/mL],MIC (E. cloacae 908R; 908R) [µg/mL],MIC (E. coli 25922; 25922) [µg/mL],MIC (M. catarrhalis RA21; RA21) [µg/mL],MIC (P. vulgaris 1028; 1028) [µg/mL],MIC (X. maltophilia 1AC739; 1AC739) [µg/mL],also measured
"Nc1nc(/C(=N/O)C(=O)N[C@@H]2C(=O)N3C(C(=O)O)=C(/C=C4\CCN(c5ccc(O)cc5)C4=O)CS[C@H]23)cs1 [A, (6R,7R)-7-[(Z)-2-(2-Amino-thiazol-4-yl)-2-hydroxyimino-acetylamino]-3-[(E)-1-(4-hydroxy-phenyl)-2-oxo-pyrrolidin-3-ylidenemethyl]-8-oxo-5-thia-1-azabicyclo[4.2.0]oct-2-ene-2-carboxylic acid]",4,8,4,0.25,0.5,0.25,4,4,0.25,0.25,0.25,4,0.5,0.25,–,–,–,–,–,–,"MIC (Acinetobacter sp. 51-156; Acinetobacter sp. 51-156, read-out: MIC): 16 µg/mL; MIC (E. cloacae 908R; E. cloacae 908R, read-out: MIC): 16 µg/mL; MIC (M. catarrhalis RA21; M. catarrhalis RA21, read-out: MIC): 16 µg/mL; MIC (P. vulgaris 1028; P. vulgaris 1028, read-out: MIC): 32 µg/mL; MIC (S. pneumoniae Q19): 0.12 µg/mL; MIC (X. maltophilia 1AC739; X. maltophilia 1AC739, read-out: MIC): > 32 µg/mL"
Nc1nc(/C(=N/O)C(=O)N[C@@H]2C(=O)N3C(C(=O)O)=C(/C=C4\CCN(c5cccc([N+](=O)[O-])c5)C4=O)CS[C@H]23)cs1 [B],2,16,1,0.25,–,0.5,4,16,–,0.5,0.25,4,1,1,16,2,0.12,> 16,16,> 32,"MIC (C. freundii 902; 902): 0.12 µg/mL; MIC (E. faecalis 6; E. faecalis 6, read-out: MIC): 0.25 µg/mL; MIC (K. pneumoniae 418; [2]): 0.25 µg/mL; MIC (P. mirabilis 2117; 2117): 0.12 µg/mL"
"Nc1ccc(CN2CC/C(=C\C3=C(C(=O)O)N4C(=O)[C@@H](NC(=O)/C(=N\O)c5csc(N)n5)[C@H]4SC3)C2=O)cc1 [D, (6R,7R)-7-[(Z)-2-(2-Amino-thiazol-4-yl)-2-(hydroxyimino-acetylamino]-3-[(E)-1-(4-aminobenzyl)-2-oxo-pyrrolidin-3-ylidenemethyl]-8-oxo-5-thia-1-azabicyclo[4.2.0-]oct-2-ene-2-carboxylic acid trifluoroacetate]",8,–,8,0.5,1,–,4,> 32,1,0.25,1,8,1,0.5,32,> 32,–,4,> 32,> 32,"MIC (C. difficile ZH1; C. difficile ZH1, read-out: MIC): 16 µg/mL; MIC (C. freundii 902; C. freundii 902, read-out: MIC): 0.25 µg/mL; MIC (E. coli 25922; E. coli 25922, read-out: MIC): 0.25 µg/mL; MIC (K. pneumoniae 418; 418): 0.25 µg/mL; MIC (M. morganii 6H-137; M. morganii 6H-137, read-out: MIC): 0.12 µg/mL; MIC (P. mirabilis 2117; [3]): 0.12 µg/mL"
"Nc1nc(/C(=N/O)C(=O)N[C@@H]2C(=O)N3C(C(=O)O)=C(/C=C4\CCN(C5CCNCC5)C4=O)CS[C@H]23)cs1 [G, (6R,7R)-7-[(Z)-2-(2-Amino-thiazol-4-yl)-2-hydroxyimino-acetylamino]-8-oxo-3-[(E)-2-oxo-1-piperidin-4-yl-pyrrolidin-3-ylidenemethyl]-5-thia-1-aza-bicyclo[4.2.0-]oct-2-ene-2-carboxylic acid hydrochloride (1:2)]",16,16,2,–,1,–,–,–,1,0.25,1,8,1,–,32,–,–,2,> 32,> 32,"MIC (E. cloacae 908R; E. cloacae 908R, read-out: MIC): 4 µg/mL; MIC (E. cloacae 908SSi; E. cloacae 908SSi, read-out: MIC): 0.25 µg/mL; MIC (L. monocytogenes BK23; L. monocytogenes BK23, read-out: MIC): 4 µg/mL; MIC (P. aeruginosa 27853; [4]): 8 µg/mL"
"Nc1nc(/C(=N/O)C(=O)N[C@@H]2C(=O)N3C(C(=O)O)=C(/C=C4\CCN(Cc5nc6ccccc6[nH]5)C4=O)CS[C@H]23)cs1 [H, (6R,7R)-7-[(Z)-2-(2-Amino-thiazol-4-yl)-2-hydroxyimino-acetylamino]-3-[(E)-1-(1H-benzimidazol-2-ylmethyl)-2-oxo-pyrrolidin-3-ylidenemethyl]-8-oxo-5-thia-1-aza-bicyclo[4.2.0]oct-2-ene-2-carboxylic acid trifluoracetate (1:1:1)]",–,16,2,0.5,2,–,4,–,1,0.25,1,8,1,0.5,> 32,4,0.12,4,16,> 32,"MIC (B. fragilis ATCC25285; B. fragilis ATCC25285, read-out: MIC): 8 µg/mL; MIC (C. freundii 902; C. freundii 902, read-out: MIC): 0.12 µg/mL; MIC (K. pneumoniae 418; [2]): 0.12 µg/mL; MIC (M. morganii 6H-137): 0.25 µg/mL; MIC (P. aeruginosa 27853; [4]): > 32 µg/mL; MIC (P. mirabilis 2117; [3]): 0.25 µg/mL"
"C=CC1=C(C(=O)O)N2C(=O)[C@@H](NC(=O)/C(=N\O)c3csc(N)n3)[C@H]2SC1 [I, [6R[6a,7b(Z)]7-(2-Amino-4-thiazolyl)[(hydroxyimino)]acetyl]amino3-ethenyl 8-oxo-5-thia-1-azabicyclo-[4.2.0]oct2-ene-2-carboxylic acid, reference compound]",–,–,> 32,32,8,0.5,16,–,–,0.25,0.5,> 32,16,2,> 32,> 32,0.25,1,1,> 32,MIC (C. freundii 902; 902): 16 µg/mL; MIC (K. pneumoniae 418; 418): 0.12 µg/mL; MIC (M. morganii 6H-137): 8 µg/mL; MIC (P. aeruginosa 27853; [4]): > 32 µg/mL; MIC (P. mirabilis 2117; 2117): 0.12 µg/mL; MIC (S. pneumoniae Q19): 0.25 µg/mL
